Test results: PubChem BioAssay AID2060492 (Molecular Pharmacology Branch, DTP, NCI, 2025)

Test system: 695427-040-R-J1-PDC complex spheroids, viability percent T/C
Assay: Anticancer human tumor 695427-040-R-J1-PDC patient-derived colon adenocarcinoma cell line growth inhibition [GQUAD]
Settings: for IC50: curve of first compound; for viability, T/C: stronger effect = lower value; active means viability on the fitted dose curve at most 10% of control; inactive means the rest
Description: DNA G-quadruplex Stabilizer Agents in Combinations in Complex Spheroids
A high-throughput screen of multi-cell type tumor spheroids was designed to identify active combinations of DNA G-quadruplex stabilizer agents and targeted small molecules. Complex spheroids include a stromal component modeled by human endothelial cells (HUVEC) and fibroblasts modeled by human mesenchymal stem cells (MSCs). The concentration ranges selected for each drug and investigational agent were based upon clinically achievable concentrations if the clinical Cmax of the agent was known.
Compounds. The drugs and investigational agents: pidnarulex (CX-5461; NSC782164), APTO-253 (NSC789042), BRACO-19 (NSC847499), peposertib (NSC802822), ceralasertib (NSC780249), elimusertib (NSC800525), camonsertib (NSC841442), AZD-1390 (NSC803789), olaparib (NSC753686), talazoparib (NSC767125), ART-558 (NSC835418), sotorasib (NSC818433), MRTX-1133 (NSC836407), SN-38 (NSC673596), topotecan (NSC609699), etoposide (NSC141540), doxorubicin (NSC123127), gemcitabine (NSC613327), 5-fluorouracil (NSC19893), paclitaxel (NSC125973), vemurafenib (NSC761431), panobinostat (NSC761190), R-306465 (JNJ-16241199; NSC773264), adavosertib (NSC754352), TP-3654 (NSC805149), carboplatin (NSC241240), KSQ-4279 (NSC840948), and staurosporine (NSC755774) were obtained from the National Cancer Institute (NCI) Developmental Therapeutics Program Chemical Repository (34). The FDA-approved anticancer drug set is available from the NCI Developmental Therapeutics Program. […] The stock solutions were prepared in dimethyl sulfoxide (DMSO, Sigma-Aldrich, St. Louis, MO, cat. D2650) at 800-fold the tested concentration and stored at -70 degrees C prior to their use. All drugs and investigational agents were tested over a range starting from a high concentration at or near the clinical Cmax and decreasing in half-log increments. If the clinical Cmax for an agent had not been determined, the highest concentration tested was 10 microM.
2.3 Cell Culture. All cells were maintained in an incubator at 37 degrees C and 5% CO2 with 95% humidity. The PDC lines were cultured according to standard operating procedures established by the NCI PDMR. All PDCs were thawed and cultured in Matrigel-coated flasks prepared with a working solution of 1X Ham's F-12 nutrient mix, without supplementation (Invitrogen, cat. 11765054), 100 U/mL penicillin-streptomycin (Invitrogen, cat. 15140122), and 2.5% Matrigel (Corning Inc., cat. 354248) for the first three passages. The 857933-349-R-J2-PDC line was cultured in 6C/Colon 1B media, which includes advanced DMEM/F-12 (Thermo Fisher Scientific, cat. 12634028), 10 mM HEPES (Thermo Fisher Scientific, cat. 15630080), 1X GlutaMAX supplement (Thermo Fisher Scientific, cat. 35050061), 0.1 mg/mL primocin (InvivoGen, cat. ant-pm-2), 10% defined fetal bovine serum, heat inactivated (HyClone Laboratories Inc., cat. SH30070.03HI), 50% L-WRN conditioned media (ATCC, cat. CRL-3276), 1.25 mM N-Acetyl-L-cysteine (Sigma-Aldrich, cat. A9165), 10 mM nicotinamide (Sigma-Aldrich, cat. N0636), 1X B-27 supplement (Thermo Fisher Scientific, cat. 17504044), 1X N-2 supplement (Thermo Fisher Scientific, cat. 17502048), 10 microM Y-27632 dihydrochloride (Tocris Bioscience, cat. 1254), and 50 ng/mL human EGF recombinant protein (Thermo Fisher Scientific, cat. PHG0311). The 485176-168-R4-J1-PDC line was cultured in Panc media, which includes all 6C/Colon 1B media components plus 100 ng/mL human FGF-10 (Thermo Fisher Scientific, cat. 100-26), 500 nM SB-431542 (Selleckchem, cat. S1067), and gastrin (Tocris, cat. 3006).
[…]

[1] = second compound 0.0316 µM, first compound 0.0316 µM
[2] = second compound 0.0316 µM, first compound 0.1 µM
[3] = second compound 0.0316 µM, first compound 0.316 µM
[4] = second compound 0.0316 µM, first compound 1 µM
[5] = second compound 0.0316 µM, first compound 3.16 µM
[6] = second compound 0.0316 µM, first compound 10 µM
[7] = second compound 0.1 µM, first compound 0.0316 µM
[8] = second compound 0.1 µM, first compound 0.1 µM
[9] = second compound 0.1 µM, first compound 0.316 µM
[10] = second compound 0.1 µM, first compound 1 µM
[11] = second compound 0.1 µM, first compound 3.16 µM
[12] = second compound 0.1 µM, first compound 10 µM
[13] = second compound 0.316 µM, first compound 0.0316 µM
[14] = second compound 0.316 µM, first compound 0.1 µM
[15] = second compound 0.316 µM, first compound 0.316 µM
[16] = second compound 0.316 µM, first compound 1 µM
[17] = second compound 0.316 µM, first compound 3.16 µM
[18] = second compound 0.316 µM, first compound 10 µM
[19] = second compound 1 µM, first compound 0.0316 µM
[20] = second compound 1 µM, first compound 0.1 µM
[21] = second compound 1 µM, first compound 0.316 µM
[22] = second compound 1 µM, first compound 1 µM
[23] = second compound 1 µM, first compound 3.16 µM
[24] = second compound 1 µM, first compound 10 µM
[25] = second compound 3.16 µM, first compound 0.0316 µM
[26] = second compound 3.16 µM, first compound 0.1 µM
[27] = second compound 3.16 µM, first compound 0.316 µM
[28] = second compound 3.16 µM, first compound 1 µM
[29] = second compound 3.16 µM, first compound 3.16 µM
[30] = second compound 3.16 µM, first compound 10 µM
[31] = second compound 10 µM, first compound 0.0316 µM
[32] = second compound 10 µM, first compound 0.1 µM
[33] = second compound 10 µM, first compound 0.316 µM
[34] = second compound 10 µM, first compound 1 µM
[35] = second compound 10 µM, first compound 3.16 µM
[36] = second compound 10 µM, first compound 10 µM
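Further: spheroids exposed to compounds for seven days before readout.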

Nc1ccn(C2OC(CO)C(O)C2(F)F)c(=O)n1 (centres undefined) + CN(C)c1ccc(Nc2c3ccc(NC(=O)CCN4CCCC4)cc3nc3cc(NC(=O)CCN4CCCC4)ccc23)cc1
inactive: viability, T/C [1] 88.9% | viability, T/C [2] 81% | viability, T/C [3] 74.9% | viability, T/C [4] 74.2% | viability, T/C [5] 72.9% | viability, T/C [6] 62.7% | viability, T/C [7] 97.5% | viability, T/C [8] 82.7% | viability, T/C [9] 78.3% | viability, T/C [10] 74.1% | viability, T/C [11] 69.7% | viability, T/C [12] 55.3% | viability, T/C [13] 94.4% | viability, T/C [14] 83.2% | viability, T/C [15] 72.7% | viability, T/C [16] 69.3% | viability, T/C [17] 68.9% | viability, T/C [18] 59.8% | viability, T/C [19] 87.3% | viability, T/C [20] 78.8% | viability, T/C [21] 75% | viability, T/C [22] 70.4% | viability, T/C [23] 70.5% | viability, T/C [24] 57.5% | viability, T/C [25] 76.8% | viability, T/C [26] 78% | viability, T/C [27] 71.4% | viability, T/C [28] 65.2% | viability, T/C [29] 65.5% | viability, T/C [30] 54.4% | viability, T/C [31] 83.1% | viability, T/C [32] 66.2% | viability, T/C [33] 66.3% | viability, T/C [34] 63.6% | viability, T/C [35] 57.6% | viability, T/C [36] 48.2%
> 10 µM: IC50 (second compound 0.0316 µM) | IC50 (second compound 0.1 µM) | IC50 (second compound 0.316 µM) | IC50 (second compound 1 µM) | IC50 (second compound 3.16 µM) | IC50 (second compound 10 µM)

O=C(c1cc(Cc2n[nH]c(=O)c3ccccc23)ccc1F)N1CCN(C(=O)C2CC2)CC1 + CN(C)c1ccc(Nc2c3ccc(NC(=O)CCN4CCCC4)cc3nc3cc(NC(=O)CCN4CCCC4)ccc23)cc1
> 10 µM: IC50 (second compound 0.0316 µM) | IC50 (second compound 0.1 µM) | IC50 (second compound 0.316 µM) | IC50 (second compound 1 µM) | IC50 (second compound 3.16 µM) | IC50 (second compound 10 µM)
inactive: viability, T/C [1] 111% | viability, T/C [2] 100% | viability, T/C [3] 93.4% | viability, T/C [4] 102% | viability, T/C [5] 107% | viability, T/C [6] 90.8% | viability, T/C [7] 107% | viability, T/C [8] 94.2% | viability, T/C [9] 104% | viability, T/C [10] 95.9% | viability, T/C [11] 103% | viability, T/C [12] 96% | viability, T/C [13] 99.2% | viability, T/C [14] 89.1% | viability, T/C [15] 95.9% | viability, T/C [16] 98.9% | viability, T/C [17] 100% | viability, T/C [18] 97.2% | viability, T/C [19] 93.2% | viability, T/C [20] 88.7% | viability, T/C [21] 98.5% | viability, T/C [22] 93.6% | viability, T/C [23] 113% | viability, T/C [24] 89.9% | viability, T/C [25] 97.1% | viability, T/C [26] 90.7% | viability, T/C [27] 92.5% | viability, T/C [28] 89.3% | viability, T/C [29] 103% | viability, T/C [30] 92% | viability, T/C [31] 91.1% | viability, T/C [32] 84.6% | viability, T/C [33] 88% | viability, T/C [34] 82.9% | viability, T/C [35] 96.2% | viability, T/C [36] 90.6%
